{"source": "patent US5025016A", "about": "“Pyrimidine-thioalkyl pyridine derivatives, medicaments containing these compounds, and method of treatment” (Ludwig Heumann & Co. GmbH, priority 1983, dated 1991)", "note": "Counter-ions that a name gives are not always drawn.", "data": [{"system": "tracheal secretion of phenol red", "assay": "Secretion-stimulating activity: tracheal secretion of phenol red after oral administration to female mice", "format": "in vivo", "conditions": "Mus musculus, calculated from the regression curves", "experimental": "Bronchosecretolytic compounds promote the tracheal secretion of phenol red (Chronic Bronchitis Research Group, Chinese Medical Journal 3: 259, 1977). The increase in the tracheal secretion of phenol red is a measure of bronchosecretolytic activity. This activity of the test substances was investigated after oral administration to female mice. The ED50 -values shown in Table 1 were calculated from the regression curves.", "units": {"ED50": "mg/kg"}, "values": [{"molecule": "Cc1ccnc([S+]([O-])Cc2cccnc2)n1", "note": "(stereo not shown) [Example 11, 4-methyl-2-(pyridyl-3-methylsulfinyl)-pyrimidine oxalate]", "ED50": 10}, {"molecule": "CC[n+]1cccc(CSc2ncccn2)c1", "note": "[Example 13, 2-(3-methylthio-1-ethylpyridinium)-pyrimidine iodide]", "ED50": 70}, {"molecule": "CC(Sc1ncccn1)c1cccnc1", "note": "(stereo not shown) [Example 7, 2-(pyridyl-3-(2-ethylthio)-pyrimidine oxalate]", "ED50": 15}, {"molecule": "[O-][S+](Cc1cccnc1)c1ncccn1", "note": "(stereo not shown) [Example 9, 2-(pyridyl-3-methylsulfinyl)-pyrimidine hydrochloride]", "ED50": 2}, {"molecule": "Nc1ccnc(SCc2cccnc2)n1", "note": "[Example 1, 4-amino-2-(pyridyl-3-methylthio)-pyrimidine]", "ED50": 5}, {"molecule": "Oc1ccnc(SCc2cccnc2)n1", "note": "[Example 2, 4-hydroxy-2-(pyridyl-3-methylthio)-pyrimidine]", "ED50": 100}, {"molecule": "Nc1cc(O)nc(SCc2cccnc2)n1", "note": "[Example 3, 4-amino-6-hydroxy-2-(pyridyl-3-methylthio)-pyrimidine]", "ED50": 2}, {"molecule": "Nc1cc(O)nc(SCc2ccc(Cl)nc2)n1", "note": "[Example 6, 4-amino-6-hydroxy-2-(pyridyl-6-chloro-3-methylthio)-pyrimidine]", "ED50": 2}, {"molecule": "Cc1cc(O)nc(SCc2cccnc2)n1", "note": "[Example 5, 4-hydroxy-6-methyl-2-(pyridyl-3-methylthio)-pyrimidine]", "ED50": 15}, {"molecule": "C[n+]1cccc(CSc2ncccn2)c1", "note": "[Example 12, 2-(3-methylthio-1-methylpyridinium)-pyrimidine iodide]", "ED50": 1}, {"molecule": "Nc1c(Br)cc(Br)cc1CN[C@H]1CC[C@H](O)CC1", "note": "[Ambroxol, trans-4-(2-amino-3,5-dibromobenzyl)-aminocyclohexanol, reference compound]", "ED50": 250}, {"molecule": "Nc1cc(N)nc(SCc2cccnc2)n1", "note": "[Example 4, 4,6-diamino-2-(pyridyl-3-methylthio)-pyrimidine succinate]", "ED50": "> 100"}, {"molecule": "Cc1ccc(C(C)Sc2ncccn2)cn1", "note": "(stereo not shown) [Example 8]", "ED50": "> 100"}, {"molecule": "[O-][S+](Cc1ccncc1)c1ncccn1", "note": "(stereo not shown) [Example 10, 2-(pyridyl-4-methylsulfinyl)-pyrimidine hydrochloride]", "ED50": 100}]}, {"system": "carrageenin-induced inflammation (oedema formation)", "assay": "Antiphlogistic activity: carrageenin-oedema test, right-hand rear paw", "format": "in vivo", "conditions": "100 mg/kg i.g., 30 minutes before injection of the carrageenin; male rats", "experimental": "The antiphlogistic properties of the compounds according to the invention were determined by the carrageenin-oedema test in male rats (average weight 130-160 g, SIV 50, Messrs Ivanovas, Kisslegg). The inhibition of the carrageenin-induced inflammation (oedema formation) was measured on the right-hand rear paw. The test substances were administered intragastrally by esophagus probe 30 minutes before injection of the carrageenin. The results are shown in Table II (Higgs et.al., European Journal of Pharmacology 66, 81-86 (1980)).", "units": {"Inhibition in % (carrageenin-induced oedema formation)": "%"}, "values": [{"molecule": "Oc1ccnc(SCc2cccnc2)n1", "note": "[Example 2, 4-hydroxy-2-(pyridyl-3-methylthio)-pyrimidine]", "Inhibition in % (carrageenin-induced oedema formation)": 45}, {"molecule": "Nc1cc(N)nc(SCc2cccnc2)n1", "note": "[Example 4, 4,6-diamino-2-(pyridyl-3-methylthio)-pyrimidine succinate]", "Inhibition in % (carrageenin-induced oedema formation)": 30}]}]}
